The target in one series is T1, hERG potassium channels (Homo sapiens, UniProt Q12809).
T1 construct: purchased Invitrogen Corporation, Carlsbad, CA, USA
Kind of series: Cardiac toxicity, Predictor hERG fluorescence polarization binding. Here is the method: Cardiac toxicity was evaluated by estimating the influence of each substance on hERG potassium channels using the in vitro test system Invitrogen® PredictorTM hERG (Invitrogen Corporation, Carlsbad, CA, USA), containing Predictor hERG membrane preparations, fluorescent tracer stock solution and an assay buffer solution. Experimental procedures were conducted in accordance with the PredictorTM hERG test system's manufacturer instructions. Assays were performed in 384-well microplates. Each well contained 5 μL aliquot of each concentration of test compound, 10 μL of (2X) membrane preparation and 5 μL of working tracer solution. The cumulative reaction volume was 20 μl with 1% of DMSO ([19]). All procedures were performed at 4 replicates for each concentration. The plate was allowed to incubate at room temperature for at least 1 h prior to fluorescence polarization measurements performed with a microplate reader Infinite M1000 PRO (Tecan).

For the next series, the system named is HepG2 cell culture. Kind of series: Cell toxicity in vitro, Cell Titer Glo cell viability (ATP). In kind it is cell-based, human. Conditions: Figure 3. Here is the method:
Cell viability was estimated by the quantity of ATP produced by the HepG2 cell culture, derived from human liver hepatocellular carcinoma. Experiments were performed using a Cell Titer Glo Cell Viability (Promega) test system ([17]). Tubercidin, an inhibitor of various cellular metabolic processes, including RNA processing, nucleic acid synthesis, protein synthesis, and methylation of tRNA through intracellular incorporation into nucleic acids, was used as a positive control ([18]). Median inhibitory concentration (IC50) was used as a quantitative parameter to evaluate cell toxicity. To evaluate inhibition effectiveness (% Inh), the following formula was used: % Inh = [(Lpos − Lexp)/(Lpos − Lneg)] ^* 100%, where Lpos is the positive control (luminescence in cells with no compound); Lneg is the negative control (luminescence in cells containing medium but no cells); and Lexp is the luminescence in cells containing the compound at a certain concentration. IC50 values were calculated using Prism 5 and the criteria for minimization of the experimental points squares deviation from the theoretically calculated curve algorithm.
(Cellular ATP, detected with luciferase, serves as a proxy for viable cell number.)

T1 sequence (Q12809 whole entry): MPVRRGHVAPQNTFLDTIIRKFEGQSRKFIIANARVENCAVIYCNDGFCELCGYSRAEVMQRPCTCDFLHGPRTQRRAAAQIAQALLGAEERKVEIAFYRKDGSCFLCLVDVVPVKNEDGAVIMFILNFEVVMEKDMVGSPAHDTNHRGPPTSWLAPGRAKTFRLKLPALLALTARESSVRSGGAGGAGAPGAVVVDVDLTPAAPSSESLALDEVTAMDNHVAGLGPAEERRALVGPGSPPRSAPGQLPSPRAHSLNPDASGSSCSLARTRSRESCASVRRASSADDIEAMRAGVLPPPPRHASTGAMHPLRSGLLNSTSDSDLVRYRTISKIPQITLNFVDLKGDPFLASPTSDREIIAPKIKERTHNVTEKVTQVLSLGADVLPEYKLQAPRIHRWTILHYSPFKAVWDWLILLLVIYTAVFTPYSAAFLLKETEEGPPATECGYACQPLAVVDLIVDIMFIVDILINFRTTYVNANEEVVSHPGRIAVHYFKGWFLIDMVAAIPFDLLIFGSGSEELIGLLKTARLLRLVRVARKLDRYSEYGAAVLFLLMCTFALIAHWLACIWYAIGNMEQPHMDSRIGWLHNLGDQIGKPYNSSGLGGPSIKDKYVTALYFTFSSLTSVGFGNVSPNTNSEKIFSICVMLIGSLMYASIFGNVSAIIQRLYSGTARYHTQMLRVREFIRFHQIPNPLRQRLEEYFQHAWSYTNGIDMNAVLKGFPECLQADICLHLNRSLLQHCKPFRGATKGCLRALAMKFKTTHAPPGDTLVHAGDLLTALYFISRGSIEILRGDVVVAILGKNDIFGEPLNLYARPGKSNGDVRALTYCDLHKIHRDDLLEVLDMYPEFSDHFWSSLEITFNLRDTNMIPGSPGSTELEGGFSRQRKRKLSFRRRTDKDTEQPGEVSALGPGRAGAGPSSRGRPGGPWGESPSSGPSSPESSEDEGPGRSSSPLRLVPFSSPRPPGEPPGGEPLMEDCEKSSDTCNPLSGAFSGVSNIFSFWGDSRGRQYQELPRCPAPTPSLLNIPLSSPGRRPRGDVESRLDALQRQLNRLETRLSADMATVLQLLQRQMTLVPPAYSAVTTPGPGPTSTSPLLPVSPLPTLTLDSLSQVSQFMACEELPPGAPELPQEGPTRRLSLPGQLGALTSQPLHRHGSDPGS

Turning to `O=S1(=O)COc2cc(-c3ccc(OCC4CCN(c5ncc(Cl)cn5)CC4)c(F)c3)ccc21` [ZB-16], the figures for the “Average polarization mP (n = 4)” value at hERG potassium channels (1 μM) and at hERG potassium channels (10 μM) were 264 mP and 244 mP, respectively. The results for the “Unbound hERG %” value on hERG potassium channels (1 μM) and on hERG potassium channels (10 μM) were 89% and 77%, respectively. Besides, the “effect on HepG2 cell culture viability” value in the series on HepG2 cell culture was “no effect”.

These data come from article PMC6156125, “Chemistry and Hypoglycemic Activity of GPR119 Agonist ZB-16” (Frontiers in Endocrinology, 2018).
